Results published in PubChem BioAssay (NCI).
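The concentration for 50% growth inhibition is given as GI50. TGI is the concentration that stops growth completely.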

Key:
Test in all cases: NCI-60 cell line screen, 384-well format
[1] = tested on: 786-0 renal
[2] = tested on: A498 renal
[3] = tested on: ACHN renal
[4] = tested on: BT-549 breast
[5] = tested on: CAKI-1 renal
[6] = tested on: CCRF-CEM leukemia
[7] = tested on: EKVX NSCLC
[8] = tested on: HCT-116 colon
[9] = tested on: HOP-62 NSCLC
[10] = tested on: HOP-92 NSCLC
[11] = tested on: IGROV1 ovarian
[12] = tested on: K-562 leukemia
[13] = tested on: KM12 colon
[14] = tested on: LOX IMVI melanoma
[15] = tested on: M14 melanoma
[16] = tested on: MALME-3M melanoma
[17] = tested on: MCF7 breast
[18] = tested on: MDA-MB-231 breast
[19] = tested on: MDA-MB-435 melanoma
[20] = tested on: MDA-MB-468 breast
[21] = tested on: NCI-H226 lung
[22] = tested on: NCI-H23 lung
[23] = tested on: NCI-H322M lung
[24] = tested on: NCI-H522 lung
[25] = tested on: OVCAR-3 ovarian
[26] = tested on: OVCAR-4 ovarian
[27] = tested on: OVCAR-5 ovarian
[28] = tested on: OVCAR-8 ovarian
[29] = tested on: PC-3 prostate
[30] = tested on: RPMI-8226 leukemia
[31] = tested on: RXF 393 renal
[32] = tested on: SF-268 CNS
[33] = tested on: SF-539 CNS
[34] = tested on: SK-MEL-2 melanoma
[35] = tested on: SK-MEL-28 melanoma
[36] = tested on: SK-MEL-5 melanoma
[37] = tested on: SK-OV-3 ovarian
[38] = tested on: SN12C renal
[39] = tested on: SNB-19 CNS
[40] = tested on: SNB-75 CNS
[41] = tested on: SR leukemia
[42] = tested on: SW-620 colon
[43] = tested on: T-47D breast
[44] = tested on: TK-10 renal
[45] = tested on: U251 glioblastoma
[46] = tested on: UACC-62 melanoma
[47] = tested on: UO-31 renal

O=C(NC[C@H](O)CN1CCc2ccccc2C1)c1cc(NC2COC2)ncn1
GI50 [1]: > 100 µM | TGI [1]: > 100 µM | GI50 [2]: > 100 µM | TGI [2]: > 100 µM | GI50 [3]: > 100 µM | TGI [3]: > 100 µM | GI50 [4]: > 100 µM | TGI [4]: > 100 µM | GI50 [5]: > 100 µM | TGI [5]: > 100 µM | GI50 [6]: > 100 µM | TGI [6]: > 100 µM | GI50 [7]: > 100 µM | TGI [7]: > 100 µM | GI50 [8]: > 100 µM | TGI [8]: > 100 µM | GI50 [9]: > 100 µM | TGI [9]: > 100 µM | GI50 [10]: > 100 µM | TGI [10]: > 100 µM | GI50 [11]: > 100 µM | TGI [11]: > 100 µM | GI50 [12]: > 100 µM | TGI [12]: > 100 µM | GI50 [13]: > 42.7 µM | TGI [13]: > 100 µM | GI50 [14]: > 100 µM | TGI [14]: > 100 µM | GI50 [15]: > 100 µM | TGI [15]: > 100 µM | GI50 [16]: > 100 µM | TGI [16]: > 100 µM | GI50 [17]: > 41.5 µM | TGI [17]: > 100 µM | GI50 [18]: > 100 µM | TGI [18]: > 100 µM | GI50 [19]: > 100 µM | TGI [19]: > 100 µM | GI50 [20]: > 100 µM | TGI [20]: > 100 µM | GI50 [21]: > 100 µM | TGI [21]: > 100 µM | GI50 [22]: > 100 µM | TGI [22]: > 100 µM | GI50 [23]: > 100 µM | TGI [23]: > 100 µM | GI50 [24]: > 100 µM | TGI [24]: > 100 µM | GI50 [25]: > 69.1 µM | TGI [25]: > 100 µM | GI50 [26]: 21.8 µM | TGI [26]: > 100 µM | GI50 [27]: > 100 µM | TGI [27]: > 100 µM | GI50 [28]: > 100 µM | TGI [28]: > 100 µM | GI50 [29]: > 100 µM | TGI [29]: > 100 µM | GI50 [30]: > 47.7 µM | TGI [30]: > 100 µM | GI50 [31]: > 100 µM | TGI [31]: > 100 µM | GI50 [32]: > 100 µM | TGI [32]: > 100 µM | GI50 [33]: > 100 µM | TGI [33]: > 100 µM | GI50 [34]: > 100 µM | TGI [34]: > 100 µM | GI50 [35]: > 100 µM | TGI [35]: > 100 µM | GI50 [36]: > 100 µM | TGI [36]: > 100 µM | GI50 [37]: > 100 µM | TGI [37]: > 100 µM | GI50 [38]: > 100 µM | TGI [38]: > 100 µM | GI50 [39]: > 100 µM | TGI [39]: > 100 µM | GI50 [40]: > 100 µM | TGI [40]: > 100 µM | GI50 [41]: 0.117 µM | TGI [41]: 8.35 µM | GI50 [42]: > 100 µM | TGI [42]: > 100 µM | GI50 [43]: 4.97 µM | TGI [43]: > 100 µM | GI50 [44]: > 100 µM | TGI [44]: > 100 µM | GI50 [45]: > 100 µM | TGI [45]: > 100 µM | GI50 [46]: > 100 µM | TGI [46]: > 100 µM | GI50 [47]: > 100 µM | TGI [47]: > 100 µM

CN1CCN(c2ccc(Nc3cc(-c4cccc(-n5ccc6cc(C7CC7)cc(F)c6c5=O)c4CO)cn(C)c3=O)nc2)CC1
GI50 [1]: 1.69 µM | TGI [1]: 3.39 µM | GI50 [2]: 2.05 µM | TGI [2]: 3.96 µM | GI50 [3]: 1.6 µM | TGI [3]: 3.01 µM | GI50 [4]: 2.24 µM | TGI [4]: 5.29 µM | GI50 [5]: 2.18 µM | TGI [5]: 5.6 µM | GI50 [6]: 1.78 µM | TGI [6]: 3.18 µM | GI50 [7]: 2.03 µM | TGI [7]: 4.57 µM | GI50 [8]: 1.71 µM | TGI [8]: 3.26 µM | GI50 [9]: 2.77 µM | TGI [9]: 7.57 µM | GI50 [10]: 2.11 µM | TGI [10]: 4.78 µM | GI50 [11]: 2.89 µM | TGI [11]: 9.19 µM | GI50 [12]: 1.77 µM | TGI [12]: 3.33 µM | GI50 [13]: 2.4 µM | TGI [13]: 5.1 µM | GI50 [14]: 2.04 µM | TGI [14]: 3.52 µM | GI50 [15]: 2.01 µM | TGI [15]: 3.54 µM | GI50 [16]: 1.86 µM | TGI [16]: 3.27 µM | GI50 [17]: 1.79 µM | TGI [17]: 4.37 µM | GI50 [18]: 1.95 µM | TGI [18]: 3.92 µM | GI50 [19]: 3.59 µM | TGI [19]: 11.7 µM | GI50 [20]: 1.7 µM | TGI [20]: 3.16 µM | GI50 [21]: 1.99 µM | TGI [21]: 4.03 µM | GI50 [22]: 2.73 µM | TGI [22]: 8.14 µM | GI50 [23]: 3.91 µM | TGI [23]: 9.99 µM | GI50 [24]: 2.05 µM | TGI [24]: 4.02 µM | GI50 [25]: 1.79 µM | TGI [25]: 3.28 µM | GI50 [26]: 1.63 µM | TGI [26]: 3.11 µM | GI50 [27]: 1.94 µM | TGI [27]: 3.97 µM | GI50 [28]: 1.79 µM | TGI [28]: 3.56 µM | GI50 [29]: 3.78 µM | TGI [29]: 12.1 µM | GI50 [30]: 2.06 µM | TGI [30]: 3.56 µM | GI50 [31]: 1.6 µM | TGI [31]: 3.11 µM | GI50 [32]: 2.4 µM | TGI [32]: 7.46 µM | GI50 [33]: 1.71 µM | TGI [33]: 3.14 µM | GI50 [34]: 1.8 µM | TGI [34]: 3.34 µM | GI50 [35]: 1.71 µM | TGI [35]: 3.11 µM | GI50 [36]: 1.62 µM | TGI [36]: 3.02 µM | GI50 [37]: 2.59 µM | TGI [37]: 6.61 µM | GI50 [38]: 1.76 µM | TGI [38]: 3.63 µM | GI50 [39]: 3.96 µM | TGI [39]: 13.5 µM | GI50 [40]: 1.73 µM | TGI [40]: 3.44 µM | GI50 [41]: 1.58 µM | TGI [41]: 2.94 µM | GI50 [42]: 2.61 µM | TGI [42]: 6.97 µM | GI50 [43]: 1.75 µM | TGI [43]: 3.71 µM | GI50 [44]: 2.32 µM | TGI [44]: 5.77 µM | GI50 [45]: 2.2 µM | TGI [45]: 4.54 µM | GI50 [46]: 1.74 µM | TGI [46]: 3.16 µM | GI50 [47]: 1.77 µM | TGI [47]: 3.19 µM
